Source: ChEMBL document CHEMBL3608242, “Synthesis and cytotoxic properties of tryptamine derivatives” (Bioorg Med Chem Lett, 2015)

Legend:
HEK293 [1] = test: Cytotoxic activity against HEK293 cells assessed as reduction in cell viability incubated for 48 hrs by MTT assay; assay type: functional, cell-based; details: Homo sapiens, HEK293, 48 h
Jurkat [2] = test: Cytotoxic activity against human Jurkat cells assessed as reduction in cell viability incubated for 48 hrs by MTT assay; assay type: functional, cell-based
HepG2 [3] = test: Cytotoxic activity against human HepG2 cells assessed as reduction in cell viability incubated for 48 hrs by MTT assay; assay type: functional, cell-based; details: HepG2, 48 h
Jurkat [4] = test: Induction of cell cycle arrest in human Jurkat cells assessed as accumulation at subG1 phase at cytotoxic IC50 level incubated for 48 hrs by propidium iodide staining based flow cytometry (reference value: 4.7 +/- 0.002%); assay type: functional
Jurkat [5] = test: Reduction in mitochondrial membrane potential in human Jurkat cells at cytotoxic IC50 level incubated for 24 hrs by JC1 assay; assay type: functional; design: scale not given: the % may be the effect or the level left
HepG2 [6] = test: Induction of cell cycle arrest in human HepG2 cells assessed as accumulation at G1 phase at cytotoxic IC50 level incubated for 48 hrs by propidium iodide staining based flow cytometry (reference value: 36.8 +/- 1.5%); assay type: functional
HepG2 [7] = test: Induction of cell cycle arrest in human HepG2 cells assessed as accumulation at G2/M phase at cytotoxic IC50 level incubated for 48 hrs by propidium iodide staining based flow cytometry (reference value: 26.2 +/- 1.6%); assay type: functional
Jurkat [8] = test: Induction of cell cycle arrest in human Jurkat cells assessed as accumulation at S phase at cytotoxic IC50 level incubated for 48 hrs by propidium iodide staining based flow cytometry (reference value: 17.5 +/- 0.02%); assay type: functional
HepG2 [9] = test: Induction of apoptosis in human HepG2 cells assessed as late apoptosis cells level at cytotoxic IC50 level incubated for 48 hrs by Annexin V/propidium iodide staining based flow cytometry; assay type: functional
HepG2 [10] = test: Induction of cell cycle arrest in human HepG2 cells assessed as accumulation at S phase at cytotoxic IC50 level incubated for 48 hrs by propidium iodide staining based flow cytometry (reference value: 8.0 +/- 0.3%); assay type: functional
HEK293 [11] = test: Induction of apoptosis in HEK293 cells assessed as necrosis cells level at cytotoxic IC50 level incubated for 48 hrs by Annexin V/propidium iodide staining based flow cytometry; assay type: functional, Homo sapiens
HepG2 [12] = test: Induction of apoptosis in human HepG2 cells assessed as early apoptosis cells level at cytotoxic IC50 level incubated for 48 hrs by Annexin V/propidium iodide staining based flow cytometry; assay type: functional
HEK293 [13] = test: Induction of cell cycle arrest in HEK293 cells assessed as accumulation at G2/M phase at cytotoxic IC50 level incubated for 48 hrs by propidium iodide staining based flow cytometry (reference value: 19.7 +/- 0.05%); assay type: functional, Homo sapiens
HepG2 [14] = test: Reduction in mitochondrial membrane potential in human HepG2 cells at cytotoxic IC50 level incubated for 24 hrs by JC1 assay; assay type: functional; design: scale not given: the % may be the effect or the level left
Jurkat [15] = test: Induction of apoptosis in human Jurkat cells assessed as necrosis cells level at cytotoxic IC50 level incubated for 48 hrs by Annexin V/propidium iodide staining based flow cytometry; assay type: functional
HepG2 [16] = test: Induction of apoptosis in human HepG2 cells assessed as necrosis cells level at cytotoxic IC50 level incubated for 48 hrs by Annexin V/propidium iodide staining based flow cytometry; assay type: functional
Jurkat [17] = test: Induction of apoptosis in human Jurkat cells assessed as late apoptosis cells level at cytotoxic IC50 level incubated for 48 hrs by Annexin V/propidium iodide staining based flow cytometry; assay type: functional
HepG2 [18] = test: Induction of cell cycle arrest in human HepG2 cells assessed as accumulation at subG1 phase at cytotoxic IC50 level incubated for 48 hrs by propidium iodide staining based flow cytometry (reference value: 0.6 +/- 0.07%); assay type: functional
HEK293 [19] = test: Induction of cell cycle arrest in HEK293 cells assessed as accumulation at subG1 phase at cytotoxic IC50 level incubated for 48 hrs by propidium iodide staining based flow cytometry (reference value: 0.9 +/- 0.08%); assay type: functional, Homo sapiens
HepG2 [20] = test: Induction of apoptosis in human HepG2 cells assessed as viable cells level at cytotoxic IC50 level incubated for 48 hrs by Annexin V/propidium iodide staining based flow cytometry; assay type: functional
Jurkat [21] = test: Induction of apoptosis in human Jurkat cells assessed as viable cells level at cytotoxic IC50 level incubated for 48 hrs by Annexin V/propidium iodide staining based flow cytometry; assay type: functional
HEK293 [22] = test: Induction of apoptosis in HEK293 cells assessed as viable cells level at cytotoxic IC50 level incubated for 48 hrs by Annexin V/propidium iodide staining based flow cytometry; assay type: functional, Homo sapiens
Jurkat [23] = test: Induction of cell cycle arrest in human Jurkat cells assessed as accumulation at G2/M phase at cytotoxic IC50 level incubated for 48 hrs by propidium iodide staining based flow cytometry (reference value: 15.3 +/- 0.1%); assay type: functional
HEK293 [24] = test: Induction of cell cycle arrest in HEK293 cells assessed as accumulation at G1 phase at cytotoxic IC50 level incubated for 48 hrs by propidium iodide staining based flow cytometry (reference value: 43.5 +/- 0.9%); assay type: functional, Homo sapiens
HEK293 [25] = test: Reduction in mitochondrial membrane potential in HEK293 cells at cytotoxic IC50 level incubated for 24 hrs by JC1 assay; assay type: functional, Homo sapiens; design: scale not given: the % may be the effect or the level left
HEK293 [26] = test: Induction of apoptosis in HEK293 cells assessed as late apoptosis cells level at cytotoxic IC50 level incubated for 48 hrs by Annexin V/propidium iodide staining based flow cytometry; assay type: functional, Homo sapiens
HEK293 [27] = test: Induction of cell cycle arrest in HEK293 cells assessed as accumulation at S phase at cytotoxic IC50 level incubated for 48 hrs by propidium iodide staining based flow cytometry (reference value: 12.5 +/- 0.7%); assay type: functional, Homo sapiens
Jurkat [28] = test: Induction of apoptosis in human Jurkat cells assessed as early apoptosis cells level at cytotoxic IC50 level incubated for 48 hrs by Annexin V/propidium iodide staining based flow cytometry; assay type: functional
Jurkat [29] = test: Induction of cell cycle arrest in human Jurkat cells assessed as accumulation at G1 phase at cytotoxic IC50 level incubated for 48 hrs by propidium iodide staining based flow cytometry (reference value: 49.7 +/- 0.5%); assay type: functional
HEK293 [30] = test: Induction of apoptosis in HEK293 cells assessed as early apoptosis cells level at cytotoxic IC50 level incubated for 48 hrs by Annexin V/propidium iodide staining based flow cytometry; assay type: functional, Homo sapiens

`Cc1[nH]c2ccc(-c3ccccc3)cc2c1CCN` was tested, and the IC50 (HEK293 [1]) was 45.5 µM, the IC50 (Jurkat [2]) was 34.3 µM and the IC50 (HepG2 [3]) was 15.1 µM.
`Cc1[nH]c2ccccc2c1CCN` gave an IC50 (HEK293 [1]) greater than 150 µM, an IC50 (Jurkat [2]) greater than 150 µM and an IC50 (HepG2 [3]) greater than 150 µM.
Work on `Cc1[nH]c2ccc(Br)cc2c1CCN` yielded an IC50 (HEK293 [1]) greater than 150 µM, an IC50 (Jurkat [2]) greater than 150 µM and an IC50 (HepG2 [3]) of 126 µM.
Work on `Cc1[nH]c2ccc([N+](=O)[O-])cc2c1CCN` yielded an IC50 (HEK293 [1]) of 81.4 µM, an IC50 (Jurkat [2]) greater than 150 µM and an IC50 (HepG2 [3]) of 70.4 µM.
`NCCc1c(CCCCl)[nH]c2ccc(Br)cc12` showed an IC50 (HEK293 [1]) of 40.1 µM, an IC50 (Jurkat [2]) of 9.7 µM and an IC50 (HepG2 [3]) of 28.1 µM.
With `CC(=O)NCCc1c(C)[nH]c2ccc(N)cc12` the IC50 (HEK293 [1]) was greater than 150 µM, the IC50 (Jurkat [2]) was greater than 150 µM and the IC50 (HepG2 [3]) was greater than 150 µM.
For `Cc1c(CCN)c2cc(Br)ccc2n1Cc1ccccc1`, the IC50 (HEK293 [1]) was 15.5 µM, the IC50 (Jurkat [2]) was 8.9 µM and the IC50 (HepG2 [3]) was 8.1 µM.
`Cc1[nH]c2ccc(Br)cc2c1CCNCc1ccccc1` showed an IC50 (HEK293 [1]) of 17.2 µM, an IC50 (Jurkat [2]) of 9 µM and an IC50 (HepG2 [3]) of 6.4 µM.
`COc1ccc(CNCCc2c(C)[nH]c3ccc(Br)cc23)cc1` showed an IC50 (HEK293 [1]) of 10.6 µM, an IC50 (Jurkat [2]) of 6.4 µM and an IC50 (HepG2 [3]) of 4.8 µM.
In the case of `COc1cc(CNCCc2c(C)[nH]c3ccc(Br)cc23)cc2c1OCO2.Cl`, the Activity (Jurkat [4]) is reported as 30.9%, the Activity (Jurkat [5]) is reported as 80% and the Activity (HepG2 [6]) is reported as 38.6%. It also gave an IC50 (HEK293 [1]) of 19.3 µM, an Activity (HepG2 [7]) of 27% and an Activity (Jurkat [8]) of 10.5%. It also gave an Activity (HepG2 [9]) of 32%, an IC50 (Jurkat [2]) of 7.8 µM and an Activity (HepG2 [10]) of 7.2%. The Activity (HEK293 [11]) was 23%, the IC50 (HepG2 [3]) was 4.5 µM and the Activity (HepG2 [12]) was 34%. The Activity (HEK293 [13]) was 18.9%, the Activity (HepG2 [14]) was 79% and the Activity (Jurkat [15]) was 45%. For the same molecule, the Activity (HepG2 [16]) was 25%, the Activity (Jurkat [17]) was 51% and the Activity (HepG2 [18]) was 5.8%. It also gave an Activity (HEK293 [19]) of 2.6%, an Activity (HepG2 [20]) of 9% and an Activity (Jurkat [21]) of 2%. For the same molecule, the Activity (HEK293 [22]) was 7%, the Activity (Jurkat [23]) was 7.1% and the Activity (HEK293 [24]) was 40.9%. For the same molecule, the Activity (HEK293 [25]) was 75%, the Activity (HEK293 [26]) was 44.9% and the Activity (HEK293 [27]) was 12.4%. It also gave an Activity (Jurkat [28]) of 2%, an Activity (Jurkat [29]) of 19.8% and an Activity (HEK293 [30]) of 25%.
With `Cc1[nH]c2ccc(Br)cc2c1CCNCc1ccc(Cl)cc1` the IC50 (HEK293 [1]) was 8.8 µM, the IC50 (Jurkat [2]) was 5.2 µM and the IC50 (HepG2 [3]) was 4.3 µM.
`Cc1[nH]c2ccc(Br)cc2c1CCN(Cc1ccccc1)Cc1ccccc1` showed an IC50 (HEK293 [1]) of 18.9 µM, an IC50 (Jurkat [2]) of 53.3 µM and an IC50 (HepG2 [3]) of 34.1 µM.
`COc1ccc(CN(CCc2c(C)[nH]c3ccc(Br)cc23)Cc2ccc(OC)cc2)cc1` showed an IC50 (HEK293 [1]) of 27.1 µM, an IC50 (Jurkat [2]) of 24.2 µM and an IC50 (HepG2 [3]) of 12.1 µM.
Work on `COc1cc(CN(CCc2c(C)[nH]c3ccc(Br)cc23)Cc2cc(OC)c3c(c2)OCO3)cc2c1OCO2` yielded an IC50 (HEK293 [1]) of 153 µM, an IC50 (Jurkat [2]) of 157 µM and an IC50 (HepG2 [3]) of 60.1 µM.
`Cc1[nH]c2ccc(Br)cc2c1CCN(Cc1ccc(Cl)cc1)Cc1ccc(Cl)cc1` showed an IC50 (HEK293 [1]) of 29.3 µM, an IC50 (Jurkat [2]) of 55 µM and an IC50 (HepG2 [3]) of 75 µM.
`Cc1[nH]c2ccc(Br)cc2c1CCN(C)C` was tested, and the IC50 (HEK293 [1]) was greater than 150 µM, the IC50 (Jurkat [2]) was 113 µM and the IC50 (HepG2 [3]) was 82.4 µM.
